Measured values reported in patent publication US11407725B2 (The Board of Trustees of the University of Illinois, priority 2018, dated 2022).

Experiments:
[1] = Photophysical properties (absorbance, emission, extinction coefficient, quantum yield); type: physicochemical; settings: Probes 1-8
ALDH1A1 [2] = target: T1, ALDH1A1 (Homo sapiens, UniProt P00352); assay: ALDH isoform selectivity of red probes: ALDH1A1; type: biochemical; settings: Table 2
T1 construct: made in house
T1 sequence (P00352 1-501): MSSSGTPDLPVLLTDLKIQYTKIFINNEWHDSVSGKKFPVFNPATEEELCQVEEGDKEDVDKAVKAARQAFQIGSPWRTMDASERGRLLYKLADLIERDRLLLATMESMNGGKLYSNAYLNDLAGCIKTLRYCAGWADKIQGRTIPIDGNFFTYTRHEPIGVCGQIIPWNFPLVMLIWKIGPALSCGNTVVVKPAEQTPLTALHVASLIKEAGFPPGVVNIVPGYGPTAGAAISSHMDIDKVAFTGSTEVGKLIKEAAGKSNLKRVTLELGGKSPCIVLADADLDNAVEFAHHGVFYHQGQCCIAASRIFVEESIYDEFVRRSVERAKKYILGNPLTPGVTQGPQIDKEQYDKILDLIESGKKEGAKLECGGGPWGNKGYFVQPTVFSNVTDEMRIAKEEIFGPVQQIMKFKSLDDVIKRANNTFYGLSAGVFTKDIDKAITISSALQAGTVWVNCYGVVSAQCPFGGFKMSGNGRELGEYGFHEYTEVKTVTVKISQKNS
Method: (§1) Each ALDH isoform was added to a 50 mM triethanolamine solution (pH 7.4) containing 2.0 mM NAD^+ and 100 μM substrate at room temperature. Benzaldehyde was the substrate for ALDH3A1. Propanal was the substrate for all other isoforms. ALDH isoform activity was determined by monitoring the rate of NADH production through the increase in absorbance at 340 nm (ε=6220 M^−1cm^−1). For these assays, 1 unit is defined as the amount of enzyme that catalyzes the conversion of […] per minute. For every combination of dye and enzyme, 2 μM dye was preincubated with 2.0 mM NAD^+ in 50 mM triethanolamine solution (pH 7.4). The reaction was initiated by addition of 1 unit of ALDH. Dyes were excited at 590 nm, and fluorescence was measured continuously at 610 nm.

ALDH1A3 = target: T2, ALDH1A3 (Homo sapiens, UniProt P47895); assay: ALDH isoform selectivity of red probes: ALDH1A3; type: biochemical; settings: Table 2
T2 construct: made in house
T2 sequence (P47895 1-512): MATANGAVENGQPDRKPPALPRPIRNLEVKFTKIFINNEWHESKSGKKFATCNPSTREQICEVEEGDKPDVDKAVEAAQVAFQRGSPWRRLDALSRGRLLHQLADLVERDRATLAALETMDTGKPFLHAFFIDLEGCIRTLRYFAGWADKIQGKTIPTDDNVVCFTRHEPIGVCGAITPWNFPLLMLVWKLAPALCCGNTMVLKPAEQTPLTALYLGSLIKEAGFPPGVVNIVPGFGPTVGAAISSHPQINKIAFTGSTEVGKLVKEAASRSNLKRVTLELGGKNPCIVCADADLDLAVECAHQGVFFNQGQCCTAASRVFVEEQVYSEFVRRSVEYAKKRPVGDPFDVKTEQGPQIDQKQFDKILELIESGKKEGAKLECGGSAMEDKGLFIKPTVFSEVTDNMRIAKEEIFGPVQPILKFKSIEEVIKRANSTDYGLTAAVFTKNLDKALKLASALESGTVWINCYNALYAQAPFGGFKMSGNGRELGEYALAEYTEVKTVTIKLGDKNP
Method: as §1

ALDH1A1 [3] = target: T1, ALDH1A1; assay: ALDH isoform selectivity of red probes: ALDH1A1; type: biochemical
ALDH isoforms = assay: BAAA isoform selectivity assay; type: biochemical, human; settings: 18 μM BAAA, 20 units of each isoform
Method: BAAA activation was determined using UV/Vis spectroscopy. A 2 mM stock solution of BAAA was prepared in DMSO and activated with 2M HCL as described in the ALDEFLUOR™ Kit protocol ([…] Technologies Inc.). Immediately before measurement, BAAA was added to the reaction mixture described above to a final concentration of 18 μM. The solution was mixed vigorously, and the reaction proceeded at room temperature. UV/Vis absorbance spectra were taken from 300 to 500 nm every 30 seconds for 15 minutes. The rate of NADH produced per minute was calculated according to the absorbance at 340 nm (ε=[…] cm^−1). All measurements were performed in triplicate and reported as the average±standard deviation. 20 units of enzyme and 18 μM of BAAA were necessary to detect a significant increase in absorbance at 340 nm for the ALDH1A1 isoform.

SMILES	Quantum Yield [1]	Enzyme Activity 1A1 (ALDH1A1 [2])	Enzymatic Turn On (ALDH1A1 [2]; ALDH1A1, 2 μM dye)	Enzyme Activity 1A3 (ALDH1A3)	enzyme kinetics with ALDH1A1 (ALDH1A1 [3])	reactivity with ALDH isoforms (ALDH isoforms)
C[Si]1(C)C2=CC(=O)C=CC2=C(c2ccc(C=O)cc2C(F)(F)F)c2ccc(O)cc21 [Probe 3, 4-(7-Hydroxy-5,5-dimethyl-3-oxo-3,5-dihydrodibenzo[b, e]silin-10-yl)-3-(trifluoromethyl)benzaldehyde]	0.25	Medium	2.7	Low	slow enzyme kinetics	
Cc1cc(C)n2c1C=C1C=CC(CCC(=O)NCC=O)=[N+]1[B-]2(F)F [BAAA, BODIPY-aminoacetaldehyde]						react with a variety of isoforms
